US20180153830A1, “SELECTIVE INHIBITORS OF UNDIFFERENTIATED CELLS” (Yissum Research Development Company of the Hebrew …, priority 2012, published 2018)

Assays:
[1] = tested on: spliced isoform sXBP1 in human ES cells; test: sXBP1 quantitative PCR, ES cells; type: cell-based; conditions: 20 μM PluriSIn #1 (12 hours) or 100 nm A939572
hPSC-derived teratomas = test: Teratoma formation from pre-treated hPSCs in NOD-SCID IL2Rγ−/− mice; type: in vivo, mouse; conditions: for teratoma formation at the side injected with pre-treated cells: cells pre-treated before injection into mice; for Incidence of teratoma formation, undifferentiated cells only: hPSCs pre-treated 48 h with 20 μM
Protocol: Human embryonic stem cell and induced pluripotent stem cell lines were cultured without feeder cells in CELLSTAR® 6-well tissue culture plates (Greiner Bio-One) pre-coated with Matrigel™, using mTeSR1 defined medium. Cells were treated for 24 hours with either 20 μM PluriSIn #1 (isonicotinic acid N′-phenylhydrazide) in 0.2% DMSO or with 0.2% DMSO, followed by medium replacement and a second treatment for another 24 hours. 48 hours after initial exposure to the tested compound, cells were harvested with trypsin-EDTA and resuspended in a 1:1 mTeSR1:Matrigel™ mixture to a total volume of 200 μl. Cells were then injected subcutaneously to the back of NOD-SCID IL2Rγ−/− mice (Jackson Laboratory). Six weeks after injection mice were sacrificed, the formation of tumors was examined, and the resulting teratomas were photographed, dissected and cryopreserved in O.C.T. compound (Sakura Finetek, Torrance, Calif.).
Alternatively, human embryonic stem cells and induced pluripotent stem cells were spontaneously differentiated in culture for a period of 10 days, by growing them on gelatin-coated culture plates with 85% knockout DMEM medium supplemented with 15% knockout serum replacement, 1 mM glutamine, 0.1 mM β-mercaptoethanol, 1% nonessential amino acids, penicillin (50 U/ml) and streptomycin (50 μg/ml), without basic fibroblast growth factor (bFGF). Retinoic acid was added to the medium at a final concentration of 1 μM. 10 days later, the differentiated cells were harvested and plated at a 1:1 ratio with their undifferentiated parental cells in CELLSTAR® 6-well tissue culture plates (Greiner Bio-One) pre-coated with Matrigel™, with mTeSR1 defined medium. Cells were treated for 24 hours with either 20 μM PluriSIn #1 or 0.2% DMSO, followed by medium replacement and a second treatment for another 24 hours. 48 hours after initial exposure to the compound, cells were harvested with trypsin-EDTA and counted using a Countess automated cell counter (Invitrogen). 1 million viable cells from each condition were resuspended in a 1:1 mTeSR1:Matrigel™ mixture to a total volume of 200 μl. Cells were then injected subcutaneously to the back of NOD-SCID IL2Rγ−/− mice. Each mouse was injected with PluriSIn #1-treated cells into one side of its body and control-treated cells into the other side. Six weeks after injection mice were sacrificed, the formation of tumors was examined, and the resulting teratomas were photographed, dissected and cryopreserved in O.C.T. compound.
To evaluate in vivo tumorigenicity, hPSCs were cultured under the abovementioned conditions in the presence or absence of PluriSIn #1, and the cultures were then injected subcutaneously into immuno-compromised NOD-SCID IL2Rγ−/− mice, which have been previously reported to be especially susceptible to human-derived tumors [Quintana et al., Nature 456:593-598 (2008)]. Mice were sacrificed after 4-6 weeks, and teratoma formation was then assessed.
Similarly, CSES2-SO2 and BJ-iPS28 cell lines were injected into immune-compromised mice (2 mice for each cell line), with control cells and treated cells being injected into the two body sides of the same animal.
The effect of PluriSIns was on teratoma formation was then evaluated in a model designed to simulate a clinical setting. Human ES and iPS cells were spontaneously differentiated in culture for a period of 10 days, and the differentiated cells were then harvested and plated together with undifferentiated cells, in a 1:1 mixture of undifferentiated and differentiated cells, as described in the Materials and Methods section. Following a 48 hour exposure to PluriSIn #1, cells were harvested and injected subcutaneously into NOD-SCID IL2Rγ−/− mice, with each mouse being injected with PluriSin #1-treated cells into one side of its body and with control cells into the other side. The same total number of cells was injected into both sides.

[2] = tested on: phosphorylated eIF2α in hPSCs; test: Phospho-eIF2α immunoblot, ES cells; type: cell-based, human; conditions: 20 μM PluriSIn #1 or 100 nm A939572
Protocol: For immunoblotting, 10% polyacrylamide gel was used for protein separation and detection. The gel was transferred to a nitrocellulose membrane and antibody hybridization and chemiluminescence were performed according to standard procedures. The primary antibodies in this analysis were rabbit anti-phosphorylated-eIF2a (1:250, Cell Signaling Technology), rabbit anti caspase-3 (1:1,000, Cell Signaling Technology), mouse anti β-catenin (1:10,000, BD Biosciences) and mouse anti-α-tubulin (1:50,000, Sigma-Aldrich). Horseradish peroxidase-conjugated anti-rabbit and anti-mouse secondary antibodies were obtained from Jackson Immunoresearch Laboratories.
To further study the significance of UPR, XBP1 mRNA splicing and eIF2α phosphorylation, hallmarks of UPR, were further examined. Human ES cells and ES-derived differentiated cells were treated with PluriSIn #1 for 12 hours, and expression of the spliced isoform sXBP1 was determined by quantitative PCR and by immunoblotting, as described in the Materials and Methods section. Gene expression change conferred by dithiothreitol ([…]) was used as a positive control.

SCD1 = target: T1, SCD1 (Homo sapiens, UniProt O00767); test: In vitro biochemical screen for SCD1 inhibitors; conditions: previous studies
T1 sequence (O00767 1-359): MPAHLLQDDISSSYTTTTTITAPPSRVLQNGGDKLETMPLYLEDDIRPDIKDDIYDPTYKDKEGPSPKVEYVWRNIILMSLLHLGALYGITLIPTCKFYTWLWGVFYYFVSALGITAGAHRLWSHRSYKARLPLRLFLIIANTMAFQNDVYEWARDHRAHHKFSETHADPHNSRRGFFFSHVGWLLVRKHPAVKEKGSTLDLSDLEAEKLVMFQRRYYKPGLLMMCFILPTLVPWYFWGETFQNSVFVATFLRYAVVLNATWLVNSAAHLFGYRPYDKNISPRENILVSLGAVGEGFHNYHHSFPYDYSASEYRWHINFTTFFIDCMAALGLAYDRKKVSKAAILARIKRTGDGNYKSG
Description: Inhibition of SCD1 has been reported to induce ER stress and UPR in some human cancer cell lines, leading to apoptosis of these cells [Roongta et al., Molecular Cancer Research 9:1551-1561 (2011); Minville-Walz et al., PloS One 5:e14363 (2010); Scaglia et al., PloS One 4:e6812 (2009); Hess et al., PloS One 5:e1394 (2010); Morgan-Lappe et al., Cancer Research 67:4390-4398 (2007); Mason et al., PLoS One 7:e33823 (2012)].

Row | SMILES | increase in expression of spliced isoform sXBP1, ES cells [1] | teratoma formation at the side injected with pre-treated cells (hPSC-derived teratomas) | levels of phosphorylated eIF2α, ES cells [2] | SCD1 inhibition in an in vitro biochemical screen (SCD1) | Incidence of teratoma formation, 1:1 mixture of undifferentiated and differentiated cells (hPSC-derived teratomas; cells pre-treated 48 h with 20 μM, injected subcutaneously) | Incidence of teratoma formation, undifferentiated cells only (hPSC-derived teratomas; injected subcutaneously) | Incidence of teratoma formation, undifferentiated cells only (hPSC-derived teratomas; injected subcutaneously, listed as PluriSn #1) | mice that developed teratomas, H9 ES cells (hPSC-derived teratomas; treated H9 ES cells injected)
1 | CNC(=O)c1cccc(NC(=O)N2CCC(Oc3ccccc3Cl)CC2)c1 [A939572, 4-(2-chlorophenoxy)-N-(3-(methylcarbamoyl)-phenyl)piperidine-1-carboxamide, reference compound] | approximately 2 fold | protective effect against teratoma formation | increased levels |  |  |  |  | 
2 | O=C(NNc1ccccc1)c1ccncc1 [PluriSIn #1, isonicotinic acid N′-phenylhydrazide] | approximately 3.5 fold | no teratoma is visible | increased levels | possible direct inhibitors of SCD1 | 0/4 | 11/11 | 0/11 | 0/3
3 | Cc1ccc(NNC(=O)C(O)(c2ccccc2)c2cccs2)cc1 (stereo not drawn) [PluriSIn #6, 2-hydroxy-2-(thiophen-2-yl)-2-phenylacetic acid 4-methyl-N′-phenylhydrazide] |  |  |  | possible direct inhibitors of SCD1 |  |  |  | 
